Measurements: patent US20060014834A1, “Retinoid solutions and formulations made therefrom” (priority 2004, published 2006)

Legend:
Type in all cases: physicochemical
[1] = Solubility of tretinoin in ethanol, ester cosolvent or both
Procedure: The method of preparing the solution is not critical. Typically, the cosolvents are combined and the retinoid is added with stirring at room temperature until completely solubilized.
It has been experimentally determined that tretinoin is not soluble in ethanol in the ratios set forth in Examples A-D:
Isopropyl myristate (“IPM”) can be replaced with alkyl benzoate, isopropyl palmitate (“IPP”) or diisopropyl adipate to achieve the same results.
In Examples E-J where alcohol is not present, the retinoids are not soluble in the esters alone. This further confirms the present finding that retinoids can be solubilized in a small amount of alcohol by using specific cosolvents.
To effectively utilize the chamber in a chamber delivery system, one must balance the concentration of the actives in both chambers. This is necessary to achieve the final, active concentration, which is efficacious as well as compliant with the FDA. The present disclosure teaches how to prepare higher concentrations of tretinoin in solution for the small chamber by using lower concentrations of alcohol by means of cosolvents such a alkyl benzoate, isopropyl myristate, and isopropyl palmitate.

[2] = Elevated temperature stability of the actives in the oil in water emulsion of Example 10; settings: Example 10 emulsion
Procedure: The elevated temperature stability of the actives in the oil in water emulsion of Example 10 was determined using techniques within the purview of those skilled in the art.

[3] = Elevated temperature stability of the actives in the liquid to powder suspension system of Example 13; settings: Example 13 suspension
Procedure: The elevated temperature stability of the actives in the liquid to powder suspension system of Example 13 was determined using techniques known to those skilled in the art.

[4] = 25° C., 2 months, unit not given
[5] = 25° C., 3 months, unit not given
[6] = 30° C., 1 month, unit not given
[7] = 30° C., 2 months, unit not given
[8] = 30° C., 3 months, unit not given

CC1=C(/C=C/C(C)=C/C=C/C(C)=C/C(=O)O)C(C)(C)CCC1 [Tretinoin]
dissolution in alcohol using ester cosolvent ([1]; 1 gram of tretinoin in 3 grams of alcohol (33.3 percent solution) with alkyl benzoate, isopropyl myristate, isopropyl palmitate or other esters): completely dissolved
solubility in ethanol ([1]; ethanol alone, tretinoin:ethanol ratios of Examples A-D): not soluble
solubility in ethanol plus cosolvent (clear solution) ([1]; same tretinoin:ethanol ratios, cosolvent IPM added (Examples 1-4)): completely dissolve into a clear solution
active content, 25° C., 2 months [2, 4]: 0.0497
active content, 25° C., 3 months [2, 5]: 0.0497
active content, 30° C., 1 month [2, 6]: 0.0490
active content, 30° C., 2 months [2, 7]: 0.0490
active content, 30° C., 3 months [2, 8]: 0.0490
active content, Initial ([2]; initial): 0.0497%
active content, 25° C., 1 month ([3]; 25° C., 1 month, unit not given): 0.0508
active content, 25° C., 2 months [3, 4]: 0.0499
active content, 25° C., 3 months [3, 5]: 0.0497
active content, 30° C., 1 month [3, 6]: 0.051
active content, 30° C., 2 months [3, 7]: 0.0498
active content, 30° C., 3 months [3, 8]: 0.0488
active content, Initial ([3]; initial): 0.0517%
